From PubChem BioAssay (NCI)
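Cells were grown in 96-well plates and exposed to each compound for 48 hours at five concentrations; endpoints were interpolated linearly between bracketing concentrations, or set to the highest concentration if not reached. TGI denotes the concentration required for complete inhibition of growth.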 *1 amine or outer side, *2 acyl side, *3 side chain or, on linkers, in order; H or OH if unused. Where a SMILES comes first, the peptide text is derived from it. Bridges are numbered along the chain shown (N, C = ends). Roman numbers before positions name the chains, in order. [ ]: non-standard residue; d: D form. Actinocin(9to1) = Cc1c2oc3c(C)ccc(C(=O)[*:1])c3nc-2c(C(=O)[*:2])c(N)c1=O; NMeH = CN[CH](Cc1c[nH]cn1)C(=O)O; Sar = CNCC(=O)O

Legend:
Experiment in all cases: NCI tumour cell line growth inhibition, 48 h
ACHN renal = system: ACHN renal
HL-60(TB) leukemia = system: HL-60(TB) leukemia
KM12 colon = system: KM12 colon
MCF7 breast = system: MCF7 breast
MDA-MB-231 breast = system: MDA-MB-231 breast
MDA-N = system: MDA-N
OVCAR-3 ovarian = system: OVCAR-3 ovarian
OVCAR-4 ovarian = system: OVCAR-4 ovarian
OVCAR-8 ovarian = system: OVCAR-8 ovarian
SK-MEL-28 melanoma = system: SK-MEL-28 melanoma
SNB-75 CNS = system: SNB-75 CNS
T-47D breast = system: T-47D breast

| SMILES | TGI (ACHN renal) [µM] | TGI (HL-60(TB) leukemia) [µM] | TGI (KM12 colon) [µM] | TGI (MCF7 breast) [µM] | TGI (MDA-MB-231 breast) [µM] | TGI (MDA-N) [µM] | TGI (OVCAR-3 ovarian) [µM] | TGI (OVCAR-4 ovarian) [µM] | TGI (OVCAR-8 ovarian) [µM] | TGI (SK-MEL-28 melanoma) [µM] | TGI (SNB-75 CNS) [µM] | TGI (T-47D breast) [µM] |
| --- | --- | --- | --- | --- | --- | --- | --- | --- | --- | --- | --- | --- |
| O=c1[nH]c(=O)n(C2CC(O)C(CO)O2)cc1Oc1ccccc1 (stereo unspecified) | > 100 | > 100 | > 100 | > 100 | > 100 | > 100 | > 100 | > 100 | > 100 | > 100 | > 100 | > 100 |
| Cc1c(C(=O)c2ccc(N)c3ccccc23)c2ccccc2n1CCN1CCOCC1 | > 100 | 58.1 | 49.1 | 70.9 | > 100 | 55 | 41.3 | > 47.8 | > 94.5 | > 100 | 47.4 | > 100 |
| COc1ccccc1-n1c(=O)n(C)c(=O)n1C(C)(C)C | – | > 100 | > 100 | > 100 | > 100 | > 100 | > 100 | > 100 | > 100 | > 100 | > 100 | > 100 |
| CC(C)(C)OC(=O)N/C(C=O)=C\C1CCCCC1 | 86.4 | 65.4 | 77.6 | 72.8 | 44.2 | 50.3 | 73.1 | 97.8 | 31.7 | > 100 | > 100 | 84.5 |
| CSC(=S)Nc1cc(C)cc(C)n1 | > 31.6 | > 31.6 | > 31.6 | > 31.6 | > 100 | > 31.6 | > 31.6 | > 31.6 | > 31.6 | > 31.6 | > 10 | > 31.6 |
| C[C@]12CC[C@H]3[C@@H](CCC4=CC(=O)C=C[C@@]43OC(=O)C(F)(F)F)[C@@H]1CCC2=O | > 100 | > 100 | > 100 | > 100 | > 100 | > 100 | > 100 | > 100 | > 100 | > 100 | > 100 | > 100 |
| CC1CC[C@@]2(OC1)O[C@H]1[C@H](O)[C@H]3[C@@H]4CC[C@H]5C[C@@H](OC6OC(CO)C(OC7OC(CO)C(O)C(OC8OCC(O)C(O)C8O)C7OC7OC(CO)C(O)C(O)C7OC7OC(CO)C(O)C(O)C7O)C(O)C6O)[C@H](O)C[C@]5(C)[C@H]4CC[C@]3(C)[C@H]1[C@@H]2C (stereo partly specified) | > 10 | 3.08 | > 10 | 7.71 | 5.85 | > 10 | > 10 | > 10 | > 10 | > 10 | > 10 | > 10 |
| O=C(/C(=C(/O)c1ccccc1)c1nc2ccccc2sc1=O)c1ccccc1 | > 100 | 20.7 | > 100 | 75.5 | > 100 | > 100 | 36.3 | > 100 | > 100 | > 100 | > 100 | > 100 |
| CC(=O)n1cc(C2CC23N=C(c2ccccc2)OC3=O)c2ccccc21 (stereo unspecified) | 38.3 | 6.12 | 48.7 | 42.9 | 46.4 | 81.7 | 53.4 | 42.4 | 35.3 | 45.6 | 39.6 | > 100 |
| O=C(O)CSc1ccccc1C(=O)O | > 100 | > 100 | > 100 | > 100 | > 100 | > 100 | > 100 | > 100 | > 100 | > 100 | > 100 | > 100 |
| O=C1COc2cc(N3CCN(c4cccc(C(F)(F)F)c4)CC3)ccc2N1 | > 100 | > 100 | > 100 | > 100 | > 100 | > 100 | > 100 | > 100 | > 100 | > 100 | > 100 | > 100 |
| Cc1c2oc3c(C)ccc(C(=O)NC4C(=O)NC(C(C)C)C(=O)N5CCCC5C(=O)N(C)CC(=O)N(C)C(Cc5cnc[nH]5)C(=O)OC4C)c3nc-2c(C(=O)NC2C(=O)NC(C(C)C)C(=O)N3CCCC3C(=O)N(C)CC(=O)N(C)C(Cc3cnc[nH]3)C(=O)OC2C)c(N)c1=O (stereo unspecified) (I: TVP[Sar][NMeH] / II: TVP[Sar][NMeH]; ester I:1-I:C, II:1-II:C; linker I:N-II:N via Actinocin(9to1); configuration not given here) | > 100 | > 100 | > 100 | > 100 | > 100 | 81.4 | > 100 | > 100 | > 100 | > 100 | > 100 | > 100 |
| N#Cc1c(-c2ccc(Cl)cc2)cc(-c2ccc(Nc3ccnc4cc(Cl)ccc34)cc2)[nH]c1=O | > 85.4 | > 100 | > 100 | > 100 | > 67.4 | > 100 | > 100 | > 100 | > 100 | > 100 | > 100 | > 100 |
| C1=NCCNCCNCCN=Cc2ccc(cc2)OCc2cccc(n2)COc2ccc1cc2 | > 100 | > 100 | > 100 | > 100 | > 100 | > 100 | > 100 | > 100 | > 100 | > 100 | > 100 | > 100 |
| C=C(C(=O)O[C@H]1C/C(C)=C/CC/C(CO)=C/[C@H]2C(=O)OC(=C)[C@H]12)C(O)CO (stereo partly specified) | 24.8 | 10.4 | 42.3 | 25.6 | 33.3 | 25.3 | 22.8 | 46.9 | 40.1 | 30.8 | 34.9 | 11.8 |
| O=C1NC(=O)c2ccccc2/C1=C/c1ccc2c(c1)OCO2 | 34.3 | > 100 | 41 | > 100 | 47.5 | > 100 | 25 | > 100 | 95.1 | – | 86.6 | > 100 |
| CN1/C(=C/C=C/C=C/C=C2C(=O)c3ccccc3C2=O)C(C)(C)c2ccccc21 | > 100 | > 100 | > 100 | > 100 | > 100 | > 100 | > 100 | > 100 | > 100 | – | > 100 | > 100 |
